For 13 compounds, IC50 results are on record in US11453666B2, “Autotaxin inhibitory compounds” (Cancer Research Technology Limited, priority 2015, dated 2022).

In the first assay the target is human recombinant ATX (Homo sapiens, UniProt Q13822). As to the kind of experiment: Autotaxin (ATX) activity Quanta Red assay. It counts as biochemical. Conditions: Table 2: additional compounds tested for ATX activity (Quanta Red Assay); read-out: Activity. The procedure: The reaction was stopped after 2 hours with a 20 μL addition of Quanta Red Stop solution (1:20 dilution in distilled water). The above-described mixture with DMSO alone was used as a positive control whereas that with DMSO alone without ATX was taken as a negative control.
Fluorescence was determined in a BMG Labtech Pherastar plus plate reader ([…]). Data were analysed using Excel fit software. IC50 values were determined in duplicate.
With `COc1ccc(Cn2c(CCC(=O)NCc3ccc(F)cc3)nc3cccnc32)cc1` [Example 219, N-(4-Fluoro-benzyl)-3-[3-(4-methoxy-benzyl)-3H-imidazo[4,5-b]pyridin-2-yl]-propionamide], the IC50 amounted to 89 nM.

Staying with this assay, now noted: human recombinant ATX 0.8 μg/mL, 2 hours at room temperature, IC50 determined in duplicate; read-out: Activity (ATX activity, Quanta Red assay; IC50).
As to `C[C@H](NC(=O)CCc1nc2ccncc2n1Cc1ccc(F)cc1)c1ccc(F)cc1` [Example 132, 3-[3-(4-Fluoro-benzyl)-3H-imidazo[4,5-c]pyridin-2-yl]-N-[(S)-1-(4-fluoro-phenyl)-ethyl]-propionamide], the IC50 worked out at 52 nM.

The same assay, now with this note: read-out: Activity (ATX activity, Quanta Red assay; IC50).
For `O=C(CCc1nc2ccncc2n1Cc1ccc(OC(F)(F)F)cc1)NCc1ccc(F)cc1` [Example 133, N-(4-Fluoro-benzyl)-3-[3-(4-trifluoromethoxy-benzyl)-3H-imidazo[4,5-c]pyridin-2-yl]-propionamide], the IC50 was determined as 52 nM. Still for that read-out and setting: to `C[C@H](NC(=O)CCc1nc2cccnc2n1Cc1ccc(F)cc1)c1ccc(N2CCCCC2)cc1` [Example 186, 3-[3-(4-Fluoro-benzyl)-3H-imidazo[4,5-b]pyridin-2-yl]-N-[(S)-1-(4-piperidin-1-yl-phenyl)-ethyl]-propionamide] belongs 13 nM.

Consider `C[C@H](NC(=O)CCc1nc2cccnc2n1Cc1ccc(F)c(F)c1)c1ccc(CN(C)C)cc1` [Example 208, 3-[3-(3,4-Difluoro-benzyl)-3H-imidazo[4,5-b]pyridin-2-yl]-N-[(S)-1-(4-dimethylaminomethyl-phenyl)-ethyl]-propionamide], for which the IC50 was 80 nM. On to `C[C@H](NC(=O)CCc1nc2cccnc2n1Cc1ccc(F)c(F)c1)c1ccc(N2CCCC2)cc1` [Example 183, 3-[3-(3,4-Difluoro-benzyl)-3H-imidazo[4,5-b]pyridin-2-yl]-N-[(S)-1-(4-pyrrolidin-1-yl-phenyl)-ethyl]-propionamide], for which the IC50 stood at 10 nM. On to `C[C@H](NC(=O)CCc1nc2cccnc2n1Cc1ccc(F)c(F)c1)c1ccc(N2CCOCC2)cc1` [Example 45, 3-[3-(3,4-Difluoro-benzyl)-3H-imidazo[4,5-b]pyridin-2-yl]-N-[(S)-1-(4-morpholin-4-yl-phenyl)-ethyl]-propionamide], for which the IC50 amounted to 17 nM. Take `C[C@H](NC(=O)CCc1nc2cccnc2n1Cc1ccc(F)cc1)c1ccc(Br)cc1` [Example 83, N—[(S)-1-(4-bromo-phenyl)-ethyl]-3-[3-(4-fluoro-benzyl)-3H-imidazo[4,5-b]pyridin-2-yl]-propionamide]: the IC50 came to 2 nM. The same measure, in the same setting: to `C[C@H](NC(=O)CSc1nc2cccnc2n1Cc1ccc(F)cc1)c1ccc(F)cc1` [Example 146, 2-[3-(4-Fluoro-benzyl)-3H-imidazo[4,5-b]pyridin-2-ylsulfanyl]-N-[(S)-1-(4-fluoro-phenyl)-ethyl]-acetamide] belongs 3 nM; to `C[C@H](NC(=O)CCc1nc2cccnc2n1Cc1ccc(OC(F)(F)F)cc1)c1ccccn1` [Example 29, N-((S)-1-Pyridin-2-yl-ethyl)-3-[3-(4-trifluoromethoxy-benzyl)-3H-imidazo[4,5-b]pyridin-2-yl]-propionamide], 5 nM. Same read-out and setting: next, `C[C@H](NC(=O)CCc1nc2cccnc2n1Cc1ccc(F)c(F)c1)c1ccc(N2CCCCC2)cc1` [Example 187, 3-[3-(3,4-Difluoro-benzyl)-3H-imidazo[4,5-b]pyridin-2-yl]-N-[(S)-1-(4-piperidin-1-yl-phenyl)-ethyl]-propionamide]: 15 nM. The same measure, in the same setting: to `O=C(CCc1nc2cccnc2n1Cc1ccc(OC(F)(F)F)cc1)N[C@H](Cc1ccccc1)C(=O)O` [Example 195, (R)-3-Phenyl-2-{3-[3-(4-trifluoromethoxy-benzyl)-3H-imidazo[4,5-b]pyridin-2-yl]-propionylamino}-propionic acid] belongs 1 nM; to `C[C@H](NC(=O)NCc1nc2cccnc2n1Cc1ccc(F)c(F)c1)c1ccc(Br)cc1` [Example 158, 1-[(S)-1-(4-Bromo-phenyl)-ethyl]-3-[3-(3,4-difluoro-benzyl)-3H-imidazo[4,5-b]pyridin-2-ylmethyl]-urea], 17 nM.
